These results are taken from EP3056202A1, “BENZOPYRROLIDONE DERIVATIVES POSSESSING ANTIVIRAL AND ANTICANCER PROPERTIES” (Max-Planck-Gesellschaft zur Förderung der Wissenschaften …, priority 2015, dated 2016).

A short description of one series: physchem. Format: physicochemical. To be noted: kinetic from dmso stock. On the procedure:
Samples were diluted in DMSO (control), phosphate buffer pH = 7.4 and pH = 2.0, from 5mM stock solutions (solved in DMSO), with a 120 µM final concentration. The samples were incubated for 24 hours at room temperature followed by 30 minutes centrifugation at 3700 rpm. 40 µl of the supernatants were injected into HPLC (Waters 2795 Alliance HPLC equipped with Waters 996 PDA Detector (HPLC column: Waters XBridge, RP C18, 3.5 µm, 4.6 mm x 50 mm; gradient MeCN/H2O, containing 0.1% HCOOH: 5% MeCN (0.5 min), 5% to 95% MeCN (5 min), 95% MeCN (0.5 min); flow rate: 2.0 ml/min)) and the AUC values (measured on sample specific wavelength) of the buffered samples were divided by the AUC values (same wavelength as buffered samples') of the DMSO control samples. Table 3: Solubility in water for several compounds according to general formula (I)

Series [1] has as its system HCT-116 human colon carcinoma cell line. The experiment in a line: In vitro growth inhibition of colon carcinoma cells, HCT-116 (CellTiter-Glo). Particulars: 72 hours incubation, read-out: HCT116 EC50. Format: cell-based. On the technique in general: ATP-based viability assays read luminescence as a measure of living cells.
Series [2] relates to HKE3 human colon carcinoma cell line. The experiment in a line: In vitro growth inhibition of colon carcinoma cells, HKE3 (CellTiter-Glo). It counts as cell-based. To be noted: 72 hours incubation.
For another series, the target named is T1, human Clk1 kinase (Homo sapiens, UniProt P49759).
T1 construct: Each reaction consisted of 4 nM enzyme: Clk1 kinase domain
T1 sequence (P49759 161-477 limits assumed): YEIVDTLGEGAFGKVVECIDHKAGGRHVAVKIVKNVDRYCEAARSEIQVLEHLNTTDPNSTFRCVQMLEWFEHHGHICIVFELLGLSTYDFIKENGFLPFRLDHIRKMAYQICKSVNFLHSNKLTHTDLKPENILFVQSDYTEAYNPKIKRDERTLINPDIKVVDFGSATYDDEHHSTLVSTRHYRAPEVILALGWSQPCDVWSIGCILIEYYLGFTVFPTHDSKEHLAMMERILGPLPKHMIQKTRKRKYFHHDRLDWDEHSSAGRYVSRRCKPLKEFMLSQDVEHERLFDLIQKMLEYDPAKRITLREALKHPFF
The experiment in a line: In vitro Clk1 assay (IMAP fluorescence polarization). Format: biochemical. Particulars: 0.45 µM ATP. On the procedure: The activity of the compounds described in the present invention can be determined by the following kinase assay, which measures the phosphorylation of a fluorescently-labeled peptide by human Clk1 kinase by fluorescent polarization using a commercially available IMAP Screening Express Assay Kit (Molecular Devices).
Clk1 kinase assays were performed in low protein binding 384-well plates (Corning). Test compounds were diluted in 100% DMSO to 5 mM stock concentration and then further dilutions were made in H2O or 100% DMSO to desirable concentrations.
Each reaction consisted of 4 nM enzyme: Clk1 kinase domain, 400 nM TAMRA-AFRREWSPGKEAKK-NH2 (Genecust), 0.45 µM ATP (Sigma) and kinase buffer: 20 mM TRIS pH 8, 1 mM DTT, 0.4 mM MgCl2, 0.4 mM MnCl2, 0.01 V/V% Tween20 (all reagents from Sigma-Aldrich)
For each reaction, 4 or 6 µl containing TAMRA-peptide, ATP and kinase buffer were combined with 2 µl diluted compound in H2O or 0.02 µl compound in 100% DMSO. The kinase reaction was started by the addition of 2 µl diluted enzyme. The reaction was allowed to run for 1 hour at room temperature. The reaction was stopped by adding 15 µl IMAP beads (1:600 beads in progressive (80 % buffer A, 20% buffer B) 1x buffer). After an additional hour, fluorescent polarization (Ex: 550-10 nm, Em: 590-10 nm, Dich: 561 nm) was measured using an Analyst GT (Molecular Devices).
On the technique in general: Fluorescence polarisation rises when a labelled molecule tumbles more slowly, as on binding a larger partner.

The target of the next series is human Ack1 kinase (Homo sapiens, UniProt Q07912). The experiment in a line: In vitro Ack1 assay (TranScreener ADP2 FP, generation of ADP). Format: biochemical. Particulars: 12.5 uM compound; 3.5 µM ATP; read-out: Ack1 inh% @12.5 uM. Here is the method:
The activity of the compounds described in the present invention can be determined by the following kinase assay, which measures the generation of ADP by human Ack1 kinase by fluorescent polarization using a commercially available TranScreener ADP2 FP Assay Kit (BellBrook Labs).
Ack1 kinase assays were performed in low protein binding 384-well plates (Corning). Test compounds were diluted in 100% DMSO to 5 mM stock concentration and then further dilutions were made in H2O or 100% DMSO to desirable concentrations.
Each reaction consisted of 5 nM enzyme: Ack1 kinase, Poly Glu-Tyr (4:1) (Sigma), 3.5 µM ATP and kinase buffer: 20 mM HEPES pH7.5, 1 mM DTT, 2 mM MgCl2, 0.4 mM MnCl2, 0.01 V/V% Tween20 (all reagents from Sigma-Aldrich)
For each reaction, 4 or 6 µl containing Poly Glu-Tyr (4:1), ATP and kinase buffer were combined with 2 µl diluted compound in H2O or 0.02 µl compound in 100% DMSO. The kinase reaction was started by the addition of 2 µl diluted enzyme. The reaction was allowed to run for 1 hour at room temperature. The reaction was stopped by addition of 8 µl ADP detection mixture (1 x) (1 x Detection buffer + 4.78 µg/ml ADP2 Ab + 4 nM ADP Alexa633 Tracer). After an additional hour, fluorescent polarization (Ex: 630-35 nm, Em: 680-30 nm, Dich: 650 nm) was measured using an Analyst GT (Molecular Devices).

Series [3] deals with H1 N1 influenza virus strain A/WSN/33. The series is described as follows: microbe, parasite or virus in culture. Format: cell-based. Particulars: 36 h, read-out: Influenza replication IC50.
Series [4] deals with HepG2 hepatoblastomaderived cell line. The series is described as follows: In vitro growth inhibition, HepG2 (CellTiter-Glo). It counts as cell-based. To be noted: Homo sapiens, 72 hours incubation.
The target of the next series is human Akt1 kinase (Homo sapiens, UniProt P31749). The series is described as follows: In vitro Akt1 assay (IMAP fluorescence polarization, phosphorylation of TAMRA-peptide). It counts as biochemical. To be noted: 40 µM ATP; for inhibition at 12.5 µM: 12.5 uM compound, read-out: Akt1 inh% @12.5 uM. On the procedure:
The inhibition of Akt1 by the compounds described in the present invention were determined measuring the phosphorylation of a fluorescently-labeled peptide (TAMRA-peptide) by human Akt1 kinase by fluorescent polarization using a commercially available IMAP Screening Express Assay Kit (Molecular Devices).
Akt1 kinase assays were performed in low protein binding 384-well plates (Corning). Test compounds were diluted in 100% DMSO to 5 mM stock concentration and then further dilutions were made in H2O or 100% DMSO to desirable concentrations.
Each reaction consisted of 5 nM enzyme: Akt1 kinase, 400 nM TAMRA-peptide (5-TAMRA-GRTGRRNSI-COOH; Genecust), 40 µM ATP and kinase buffer: 20 mM MES pH6, 1 mM DTT, 10 mM MgCl2, 2 mM MnCl2, 0.01 V/V% TritonX (all reagents from Sigma-Aldrich).
For each reaction, 4 or 6 µl containing TAMRA-peptide, ATP and kinase buffer were combined with 2 µl diluted compound in H2O or 0.02 µl compound in 100% DMSO. The kinase reaction was started by the addition of 2 µl diluted enzyme. The reaction was allowed to run for 1 hour at room temperature. The reaction was stopped by adding 15 µl IMAP beads (1:400 beads in progressive (75% buffer A, 25% buffer B) 1x buffer). After an additional hour, fluorescent polarization (Ex: 550-10 nm, Em: 590-10 nm, Dich: 561 nm) was measured using an Analyst GT (Molecular Devices).

For series [5], the system named is A549 human lung carcinoma cells. The series is described as follows: Cell-based EC50 determination, A549 cells (CellTiter-Glo cell viability). To be noted: A549, 24 h, read-out: A549 EC50 24h. Here is the method:
A549 human lung carcinoma cells were cultured in RPMI 1640 medium (Sigma) supplemented with 10% fetal bovine serum (Sigma) and Antibiotic-Antimycotic (Sigma) in tissue culture flasks at 37°C in a humidified 5% CO2 atmosphere. Cells were routinely assayed for mycoplasma contamination.
Two thousand cells were plated in 384-well tissue culture plates, and treated after 24 hours with a 10-point dilution series of the compounds (1.5 nM-30 uM), using the vehicle, DMSO as control. Cells were incubated for 24 hours after which the relative cell density was determined by CellTiter-Glo Luminescent Cell Viability Assay (Promega). This method determines the number of metabolically active cells in the culture based on quantitation of the ATP present. The luminescent signal was measured with an Analyst GT multimode reader (Molecular Devices). […]

≈ marks a conversion by molar mass, not a printed value.

Sequence of human Ack1 kinase (Q07912 whole entry): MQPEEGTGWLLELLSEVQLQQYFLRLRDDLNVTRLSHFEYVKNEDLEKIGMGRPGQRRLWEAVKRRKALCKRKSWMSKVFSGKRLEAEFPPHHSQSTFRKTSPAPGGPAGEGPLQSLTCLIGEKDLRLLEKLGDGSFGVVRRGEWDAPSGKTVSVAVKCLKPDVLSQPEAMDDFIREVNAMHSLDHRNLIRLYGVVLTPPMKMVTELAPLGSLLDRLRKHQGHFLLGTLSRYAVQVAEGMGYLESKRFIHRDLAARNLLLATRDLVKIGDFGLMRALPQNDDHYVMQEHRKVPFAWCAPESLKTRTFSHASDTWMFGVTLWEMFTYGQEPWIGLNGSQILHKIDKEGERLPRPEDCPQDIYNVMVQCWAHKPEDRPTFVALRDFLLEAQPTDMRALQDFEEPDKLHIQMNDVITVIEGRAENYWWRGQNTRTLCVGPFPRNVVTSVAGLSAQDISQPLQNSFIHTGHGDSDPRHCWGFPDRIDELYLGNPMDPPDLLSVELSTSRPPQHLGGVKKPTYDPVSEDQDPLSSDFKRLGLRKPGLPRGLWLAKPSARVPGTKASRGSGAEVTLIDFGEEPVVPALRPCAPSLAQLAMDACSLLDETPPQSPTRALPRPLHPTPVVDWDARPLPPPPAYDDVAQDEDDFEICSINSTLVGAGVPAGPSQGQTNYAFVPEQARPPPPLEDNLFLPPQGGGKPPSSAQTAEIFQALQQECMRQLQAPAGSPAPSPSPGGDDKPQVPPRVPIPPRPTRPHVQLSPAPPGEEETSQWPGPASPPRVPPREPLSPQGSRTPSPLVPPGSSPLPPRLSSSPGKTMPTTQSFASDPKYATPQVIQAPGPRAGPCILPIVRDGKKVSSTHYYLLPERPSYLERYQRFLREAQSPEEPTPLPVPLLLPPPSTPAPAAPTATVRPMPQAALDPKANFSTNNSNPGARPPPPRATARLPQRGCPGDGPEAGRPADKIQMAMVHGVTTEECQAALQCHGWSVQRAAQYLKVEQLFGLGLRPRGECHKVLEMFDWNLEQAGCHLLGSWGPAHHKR
Sequence of human Akt1 kinase (P31749 whole entry): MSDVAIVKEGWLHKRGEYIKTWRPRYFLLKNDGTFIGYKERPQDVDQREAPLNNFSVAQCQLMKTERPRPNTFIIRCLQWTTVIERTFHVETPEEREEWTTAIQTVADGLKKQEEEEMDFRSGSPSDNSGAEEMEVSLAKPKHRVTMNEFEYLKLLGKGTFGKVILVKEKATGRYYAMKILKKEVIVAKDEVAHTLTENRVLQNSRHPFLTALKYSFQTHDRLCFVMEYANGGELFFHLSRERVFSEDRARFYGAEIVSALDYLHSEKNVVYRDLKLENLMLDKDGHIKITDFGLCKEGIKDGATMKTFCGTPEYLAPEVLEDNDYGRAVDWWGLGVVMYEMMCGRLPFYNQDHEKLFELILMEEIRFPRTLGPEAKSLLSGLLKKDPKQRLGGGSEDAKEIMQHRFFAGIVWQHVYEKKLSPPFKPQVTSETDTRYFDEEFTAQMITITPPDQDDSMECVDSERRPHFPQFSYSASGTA

By solubility is commonly meant how much of the substance goes into solution per volume. Read a low solubility as little dissolved substance. A word on the EC50: it is the concentration needed to bring the measured effect to its halfway point. In general, IC50 refers to the concentration that gives 50% inhibition. For the compound `CC[C@@H](NC(=O)c1ccc2c(c1)/C(=C(/Nc1cccc(CN3CCCCC3)c1)c1ccccc1)C(=O)N2)c1ccccc1` [Compound 12, (3Z)-2-oxo-3-(phenyl{[3-(piperidin-1-ylmethyl)phenyl]amino}methylene)-N-[(1R)-1-phenylpropyl]indoline-5-carboxamide], the solubility at 24 h was 110 to 120 µM (≈ 62.8 to 68.5 µg/mL) in the series “physchem” (pH 2, aqueous buffer) and below 10 µM in the series “physchem” (pH 7.4, aqueous buffer). Moreover, the EC50 in [1] turned out to be 0.03 µM; in [2], 0.02 µM; in series [4], 3.52 µM; in series [5] it was 6.89 µM. Besides, the IC50 against human Clk1 kinase stood at 0.21 µM; in [3] it was 0.01 µM; against human Akt1 kinase it was 7.98 µM. Moreover, the figures for the inhibition at 12.5 µM on human Ack1 kinase and at human Akt1 kinase were 18.1% and 75.1%, respectively.

As for `C[C@@H](NC(=O)c1ccc2c(c1)/C(=C(/Nc1cccc(CN3CCCCC3)c1)c1ccccc1)C(=O)N2)c1ccccc1` [Compound 13, (3Z)-2-oxo-N-[(1R)-1-phenylethyl]-3-(phenyl{[3-(piperidin-1-ylmethyl)phenyl]amino}methylene)indoline-5-carboxamide], the solubility at 24 h was 110 to 120 µM (≈ 61.2 to 66.8 µg/mL) in “physchem” (pH 2, aqueous buffer) and below 10 µM in the series “physchem” (pH 7.4, aqueous buffer). Besides, the EC50 in [1] was found to be 0.17 µM; in [2], 0.14 µM; in [4] it was 5.66 µM; in [5], 9.34 µM. Also, the half-maximal inhibitory concentration (IC50) was found to be 0.03 µM against human Clk1 kinase, 0.16 µM in [3] and 5.94 µM against human Akt1 kinase. The inhibition at 12.5 µM came out at 13.7% at human Ack1 kinase and 60.6% on human Akt1 kinase.

For the compound `CC[C@@H](NC(=O)c1ccc2c(c1)/C(=C(/Nc1ccc(CN3CCCCC3)cc1)c1ccccc1)C(=O)N2)c1ccccc1` [Compound 18, (3Z)-2-oxo-3-(phenyl{[4-(piperidin-1-ylmethyl)phenyl]amino}methylene)-N-[(1R)-1-phenylpropyl]indoline-5-carboxamide], the solubility at 24 h is 110 to 120 µM (≈ 62.8 to 68.5 µg/mL) in “physchem” (pH 2, aqueous buffer) and below 10 µM in the series “physchem” (pH 7.4, aqueous buffer). Besides, the 50% effective concentration (EC50) is 0.01 µM in [1], 0.004 µM in series [2], 0.31 µM in series [4] and above 30 µM in series [5]. The IC50 against human Clk1 kinase was 0.03 µM; in [3] it was below 0.01 µM; at human Akt1 kinase it was 0.57 µM. For the same compound, the inhibition at 12.5 µM on human Ack1 kinase is 85.9%; on human Akt1 kinase it was 92.1%.

`O=C1Nc2ccc(C(=O)NCc3ccccc3)cc2/C1=C(/Nc1ccc(CN2CCCCC2)cc1)c1ccccc1` [Compound 20, (3Z)-N-benzyl-2-oxo-3-(phenyl{[4-(piperidin-1-ylmethyl)phenyl]amino}methylene)indoline-5-carboxamide]: the solubility at 24 h was 110 to 120 µM (≈ 59.7 to 65.1 µg/mL) in “physchem” (pH 2, aqueous buffer) and below 10 µM in “physchem” (pH 7.4, aqueous buffer). For the same compound, the 50% effective concentration (EC50) is 0.02 µM in series [1], 0.01 µM in series [2], 0.79 µM in series [4] and above 30 µM in series [5]. The 50% inhibitory concentration (IC50) against human Clk1 kinase was 0.01 µM; in [3], below 0.01 µM; on human Akt1 kinase it was 0.91 µM. Further, the inhibition at 12.5 µM on human Ack1 kinase worked out at 72.7%; at human Akt1 kinase, 91.6%.

Consider `COc1ccc([C@@H](C)NC(=O)c2ccc3c(c2)/C(=C(/Nc2ccc(CN4CCCCC4)cc2)c2ccccc2)C(=O)N3)cc1` [Compound 21, (3Z)-N-[(1R)-1-(4-methoxyphenyl)ethyl]-2-oxo-3-(phenyl{[4-(piperidin-1-ylmethyl)phenyl]amino}methylene)indoline-5-carboxamide], for which the solubility at 24 h in “physchem” (pH 2, aqueous buffer) was 100 to 110 µM (≈ 58.7 to 64.5 µg/mL); in “physchem” (pH 7.4, aqueous buffer) it was below 10 µM. The concentration for a half-maximal effect (EC50) in series [1] is 0.41 µM; in [2], 0.32 µM; in [4], 5.3 µM; in series [5] it was above 30 µM. The values for the IC50 (against human Clk1 kinase; in series [3]; at human Akt1 kinase) were 0.02 µM, 1.48 µM and 1.7 µM, respectively. In addition, the inhibition at 12.5 µM stood at 87% at human Ack1 kinase and 78.2% at human Akt1 kinase.

As for `COc1cccc([C@@H](C)NC(=O)c2ccc3c(c2)/C(=C(/Nc2ccc(CN4CCCCC4)cc2)c2ccccc2)C(=O)N3)c1` [Compound 22, (3Z)-N-[(1R)-1-(3-methoxyphenyl)ethyl]-2-oxo-3-(phenyl{[4-(piperidin-1-ylmethyl)phenyl]amino}methylene)indoline-5-carboxamide], the solubility at 24 h was 110 to 120 µM (≈ 64.5 to 70.4 µg/mL) in “physchem” (pH 2, aqueous buffer) and below 10 µM in “physchem” (pH 7.4, aqueous buffer). Besides, the EC50 is 0.04 µM in [1], 0.02 µM in [2], 1.06 µM in series [4] and above 30 µM in series [5]. The concentration for half-maximal inhibition (IC50) was 0.02 µM at human Clk1 kinase, below 0.01 µM in [3] and 0.11 µM against human Akt1 kinase. In addition, the inhibition at 12.5 µM on human Ack1 kinase was determined as 83.8%; at human Akt1 kinase, 88%.
